Experimental data from patent US9662320B2, “Antagonists of the cannabinoid receptor CB1 for use in the treatment of diseases associated with neuronal dendritic abnormalities” (Universitat Pompeu Fabra, priority 2013, dated 2017).

System: Fmr1^−/y mice
Test: Dendritic spine density and morphology analysis in Fmr1−/y mice treated with rimonabant
Assay type: in vivo
Conditions: 1 mg/kg, i.p., 7 d
Description: Fmr1 knockout (KO) mice in FVB background (Fmr1 KO, FVB.129P2-Pde6b^+ Tyr^c-ch Fmr1^tm1Cgr/J) and wild-type mice (WT, FVB.129P2-Pde6b^+ Tyr^c-ch/AntJ) were purchased from The Jackson Laboratory and crossed to obtain Fmr1^−/y and WT littermates. All experimental animals were bred in-house at the Barcelona Biomedical Research Park (PRBB) Animal Facility. Fmr1^−/y and WT mice were used at 12 to 16 weeks of age. Mice were housed four per cage in a temperature (21±1° C.) and humidity (55±10%) controlled environment. Food and water were available ad libitum. All the experiments were performed during the light phase of a 12 h light/dark cycle (lights on at 8 am and off at 8 pm). Animals were handled for one week before starting the experiments. All animal procedures followed the standard ethical guidelines (European Communities Directive […]) and were approved by the local ethical committee (Comitè Èlic d'Experimentació Animal-Parc de Recerca Biomèdica de Barcelona, CEEA-PRBB). The PRBB has also the Animal Welfare Assurance (#A5388-01, IACUC Approval Date Jun. 8, 2009) granted by the Office of Laboratory Animal Welfare (OLAW) of the National Institutes of Health (USA). All behavioral tests were performed by researchers blind to the different experimental groups.
Rimonabant was obtained from Sanofi-Aventis (Sanofi-Aventis Recherche). Rimonabant was injected intraperitoneally (i.p.) in a volume of 10 ml per kg.
Dendritic spine analysis was performed as previously described (Lee K W. et al., Proc Natl Acad Sci USA. 2006; 103(9): 3399-404) in mice that received a chronic administration of rimonabant (1 mg kg^−1, 7 d) or its vehicle. Brains were extracted after perfusion (4% PFA in PB) 3 h after the last administration of rimonabant or vehicle solution on the seventh day of treatment. […]
Results are reported as mean±s.e.m. The experiments were evaluated by one-way analysis of variance (ANOVA) followed by the Dunnett's post-hoc test when required. […]

[1] = compared to vehicle-treated Fmr1^−/y mice

SMILES: Cc1c(C(=O)NN2CCCCC2)nn(-c2ccc(Cl)cc2Cl)c1-c1ccc(Cl)cc1 [rimonabant, 5-(4-Chlorophenyl)-1-(2,4-dichloro-phenyl)-4-methyl-N-(piperidin-1-yl)-1H-pyrazole-3-carboxamide]
- dendritic spine density of CA1 pyramidal neurons (CA1 field of the hippocampus): normalized
- mushroom/wide (mature) spines [1]: increase
- thin/stubby (immature) spines [1]: decrease
